Measured values taken from patent US9169223B2, “Functionalised antifouling compounds and use thereof” (Agency for Science, Technology and Research, priority 2010, dated 2015).
Values after ≈ are worked out from the molar mass of the structure shown. Read-outs that look alike come from different tables or passages of the source.

Assays:
[1] = test system: stage II naupliar larvae of the barnacle Amphibalanus amphitrite; experiment: Toxicity assay with barnacle nauplii; format: in vivo
Experimental: (§1) Biological assays were conducted with larval barnacles. Barnacles are dominant and tenacious members of marine fouling communities, and often serve as a substrate for less resistant organisms. Therefore, historically they have been used as a model organism for antifouling studies. To determine the biological response of larvae to test compounds, two bioassays were performed: settlement (using settlement stage cyprids), and toxicity (using nauplii). Procedures followed methods standard in the field, which were first described by Rittschof et al. (1992).
(§2) Stock solutions of each compound were made at 50 mg/ml. Pure compounds were diluted in DMSO and sonicated. Stock solutions were stored at −20° C. in 4 ml amber screw cap vials until use. For bioassays, a small amount of stock solution was diluted in 1 μm filtered seawater (in a glass scintillation vial). The solution was then sonicated for 10 minutes. To obtain the desired concentration range, serial dilutions of the test solution were made. As control, a serial dilution of the equivalent amounts of DMSO in seawater was used.
Toxicity assays employed stage II naupliar larvae of the barnacle Amphibalanus amphitrite (previously Balanus amphitrite: Pitombo, 2004). Assay procedures were modified from Rittschof et al. (1992). Adult A. amphitrite were collected from inter-tidal areas near the Kranji mangrove, Singapore. Larval culture was based on Rittschof et al. (1984). Following collection, nauplii were concentrated for use in bioassays by placing a fiber optic light source at one side of the container, and pipetting from the resulting dense cloud of nauplii.
In order to determine LD50 values for each compound, compounds were tested over a range of concentrations between 0-50 μg/ml. For each assay, each compound at each concentration was tested in triplicate with a single batch of nauplii. The overall assay was conducted twice, using two different batches of nauplii. Two controls were run along with each assay (in triplicate): filtered seawater only, and DMSO at […] (since DMSO was used as a solvent for test compounds, this concentration is equivalent to the concentration of DMSO in the highest test compound concentration).
For assays, approximately 20 nauplii (in 50 μl filtered seawater) were added to 1 ml test solution or control, in a 2 ml glass vial (La Pha Pack® PN 11-14-0544). Assays were run for 22-24 hours at 25-27° C. After this time, living and dead nauplii were counted using a Bogorov tray. Nauplii that were approaching death were scored as dead. Data for all assays was combined and LD50 was calculated (where possible) using a probit analysis (Libermann, 1983). If LD50 could not be calculated using probit analysis, values were extrapolated based on plotted data.

[2] = test system: barnacle cyprids; experiment: Settlement assay with barnacle cyprids; format: in vivo, Amphibalanus amphitrite; conditions: for IC50: Amphibalanus amphitrite, 24 h; for TR (LD50/ED50): therapeutic ratio, LD50 (nauplii) / ED50 (cyprids)
Experimental: as §1, with “nauplii).” for “nauplii). Procedures followed methods standard in the field, which were first described by Rittschof et al. (1992).”
as §2
Nauplii were cultured as described above, and then reared at 25° C. on an algal mixture of 1:1 v/v of Tetraselmis suecica and Chaetoceros muelleri (approximately density 5×10^5 cells per ml). Under these conditions, nauplii typically metamorphose to cyprids in 5 days. Cyprids were aged at 4° C. for 2 days.
Settlement assays were conducted in 7 ml neutral glass vials (Samco® T103/V1; 34×23 mm diameter). For assays, each solution was made at twice the desired final concentration; 0.5 ml of this solution was transferred to vials. To each vial, cyprids were added by transferring 0.5 ml filtered seawater containing 20-40 aged cyprids. As in toxicity assays: each compound at each concentration was run in triplicate with cyprids from a single batch; two controls (filtered seawater and DMSO) were run along with each assays; and the overall assay was conducted twice, using two different batches of cyprids.
Assays were conducted for 24 hours, after which time the number of settled cyprids, the number of free swimming (unsettled) cyprids, and the number of dead cyprids were counted for each vial. Both metamorphosed, juvenile barnacles and cyprids that had committed to settlement (glued themselves to the vial), but had not yet metamorphosed, were counted as ‘settled’. Data was expressed as percent settlement. […] If ED50 could not be calculated using probit analysis, values were extrapolated based on plotted data.

[3] = Amphibalanus amphitrite (barnacle), stage II naupliar larvae, in vivo
[4] = anti-settlement, barnacle cyprids, 24 hours, concentration causing 50% reduction in settlement vs controls, read-out: ED50 (the source's name)
[5] = anti-settlement, barnacle cyprids, 24 hours, concentration causing 50% reduction in settlement vs controls

Row | Structure (SMILES) | LD50 [1, 3] | IC50 [2, 4] | TR (LD50/ED50) [2] | LD50 ([1]; toxicity, barnacle nauplii, 22-24 hours, 0-50 μg/ml) | IC50 ([2]; read-out: ED50) | ED50 [2, 5]
1 | CCCCC(C(=O)N1CCCCC1)c1cccc(O)c1 (centres unmarked) [Compound 17.5] | 25.14 µg/mL | 3.44 µg/mL (≈ 12.5 µM) | 7.31 |  |  | 
2 | CCCCC(C(=O)N(C)C)c1ccc(O)cc1 (centres unmarked) [Compound 17.7, 2-(4-hydroxyphenyl)-N,N-dimethylhexanamide] | >50 µg/mL | 34.1 µg/mL (≈ 145 µM) | >1.46 |  |  | 
3 | CCCCC(C(=O)N1CCCCC1)c1ccc(OCC(=O)OC)cc1 (centres unmarked) [Compound 16.7, Methyl 2-(4-(1-oxo-1-(piperidin-1-yl)hexan-2-yl)phenoxy)acetate] | 24.58 µg/mL | 26.9 µg/mL (≈ 77.4 µM) | 0.91 |  |  | 
4 | CCCCC(C(=O)N1CCCCC1)c1ccccc1 (centres unmarked) [Compound 12.1, reference compound] | 9.11 µg/mL | 1.5 µg/mL (≈ 5.78 µM) | 6.07 |  |  | 
5 | CCCCC(C(=O)N1CCCCC1)c1cc(OC)cc(OC)c1 (centres unmarked) [Compound 15.4] | 8.22 µg/mL | 3.29 µg/mL (≈ 10.3 µM) | 2.5 |  |  | 
6 | CCCCC(CCCC)C(=O)N1CCCCC1 [Compound 12.2, reference compound] | 9.83 µg/mL | 2 µg/mL (≈ 8.35 µM) | 4.92 |  |  | 
7 | CCCCC(C(=O)N1CCCCC1)c1ccc(OC)cc1 (centres unmarked) [Compound 15.1, 2-(4-methoxy)phenyl-(1-piperidin-1-yl)hexanone] | 22.95 µg/mL | 0.19 µg/mL (≈ 0.656 µM) | 120.79 |  |  | 
8 | C=CC(=O)Oc1ccc(C(CCCC)C(=O)N2CCCCC2)cc1 (centres unmarked) [Compound 16.11, 4-(1-oxo-1-(piperidin-1-yl)hexan-2-yl)phenyl acrylate] | 6.57 µg/mL | 1.53 µg/mL (≈ 4.64 µM) | 4.29 |  |  | 
9 | CCCCC(C(=O)N1CCCCC1)c1cc(OC)ccc1OC (centres unmarked) [Compound 15.5] | 8.66 µg/mL | 2.16 µg/mL (≈ 6.76 µM) | 4.01 |  |  | 
10 | CCCCC(C(=O)N1CCCCC1)c1ccc(OCC[Si](C)(C)C)cc1 (centres unmarked) [Compound 16.10, 1-(piperidin-1-yl)-2-(4-(2-(trimethylsilyl)ethoxy)phenyl)hexan-1-one] |  |  | >14.33 | >50 µg/mL | 3.49 µg/mL (≈ 9.29 µM) | 
11 | C=CCCCCC(C(=O)N(C)C)c1ccc(OC)cc1 (centres unmarked) [Compound 17.3, 2-(4-methoxyphenyl)-N,N-dimethyloct-7-enamide] | 18.61 µg/mL | 2.85 µg/mL (≈ 10.3 µM) | 6.53 |  |  | 
12 | CCCCC(C(=O)N1CCCCC1)c1ccccc1CO (single isomer, unassigned) [Compound 16.1] | >50 µg/mL |  | >12.17 |  |  | 4.11 µg/mL (≈ 14.2 µM)
13 | CCCCC(C(=O)N1CCCCC1)c1ccc(O)cc1 (centres unmarked) [Compound 16.5, 2-(4-hydroxyphenyl)-1-(piperidin-1-yl)hexan-1-one] | 17.15 µg/mL | 0.19 µg/mL (≈ 0.69 µM) | 90.26 |  |  | 
14 | CCCCC(C(=O)N1CCCCC1)c1ccccc1O (centres unmarked) [Compound 17.4] | 14.62 µg/mL | 0.65 µg/mL (≈ 2.36 µM) | 22.49 |  |  | 
15 | C=CCCCCC(C(=O)N1CCCCC1)c1ccc(O)cc1 (centres unmarked) [Compound 17.6, 2-(4-hydroxyphenyl)-1-(piperidin-1-yl)oct-7-en-1-one] | 9.82 µg/mL | 2.14 µg/mL (≈ 7.1 µM) | 4.59 |  |  | 
16 | CCCCC(C(=O)N1CCCCC1)c1ccc(OCC(=O)O)cc1 (centres unmarked) [Compound 16.9, 2-(4-(1-oxo-1-(piperidin-1-yl)hexan-2-yl)phenoxy)acetic acid] | >50 µg/mL | > 50 µg/mL |  |  |  | 
17 | CCCCC(C(=O)N1CCCCC1)c1ccc(C(=O)O)cc1 (centres unmarked) [Compound 17.9, 4-(1-oxo-1-(piperidin-1-yl)hexan-2-yl)benzoic acid] | >50 µg/mL | > 50 µg/mL | 1 |  |  | 
18 | CCCCC(C(=O)N1CCCCC1)c1ccc(OC)cc1OC (single isomer, unassigned) [Compound 15.6] | 33.21 µg/mL |  | 3.64 |  |  | 9.12 µg/mL (≈ 28.5 µM)
19 | CCCCC(C(=O)N1CCCCC1)c1ccc(OCCO)cc1 (centres unmarked) [Compound 16.6, 2-(4-(2-hydroxyethoxy)phenyl)-1-(piperidin-1-yl)hexan-1-one] | >50 µg/mL | 9.25 µg/mL (≈ 29 µM) | >5.41 |  |  | 
20 | CCCCC(C(=O)N1CCCCC1)c1ccccc1OC (centres unmarked) [Compound 15.3] | 3.67 µg/mL | 2.85 µg/mL (≈ 9.85 µM) | 1.29 |  |  | 
21 | CCCCC(C(=O)N1CCCCC1)c1ccc(OCCOC(C)=O)cc1 (centres unmarked) [Compound 16.8, 2-(4-(1-oxo-1-(piperidin-1-yl)hexan-2-yl)phenoxy)ethyl acetate] | >50 µg/mL | 29.1 µg/mL | 1.72 |  |  | 
22 | C=CCCCCC(C(=O)N(C)C)c1ccc(O)cc1 (centres unmarked) [Compound 17.8, 2-(4-hydroxyphenyl)-N,N-dimethyloct-7-enamide] | 12.46 µg/mL | 4.29 µg/mL (≈ 16.4 µM) | 2.90 |  |  | 
23 | CCCCC(C(=O)N1CCCCC1)c1ccc(OC(C)=O)cc1 (centres unmarked) [Compound 16.4, 4-(1-oxo-1-(piperidin-1-yl)hexan-2-yl)phenyl acetate] | 27.2 µg/mL | 0.23 µg/mL | 118.26 |  |  | 
24 | CCCCC(C(=O)N1CCCCC1)c1cccc(OC)c1 (centres unmarked) [Compound 15.2] | >25 µg/mL | 1.46 µg/mL (≈ 5.04 µM) | >17.12 |  |  | 
25 | CCCCC(C(=O)N(C)C)c1ccc(OC)cc1 (centres unmarked) [Compound 17.2, 2-(4-methoxyphenyl)-N,N-dimethylhexanamide] | >50 µg/mL | 8.69 µg/mL (≈ 34.9 µM) | >5.75 |  |  | 
26 | C=CCCCCC(C(=O)N1CCCCC1)c1ccc(OC)cc1 (centres unmarked) [Compound 17.1, 2-(4-methoxyoxyphenyl)-1-(piperidin-1-yl)oct-7-en-1-one] | 9.27 µg/mL | 2.37 µg/mL (≈ 7.51 µM) | 3.91 |  |  | 
